Experiments:
[1] = target: T1, Aβ derived from human (Human, 1-42) (Homo sapiens, UniProt P05067); test: Aβ accumulation inhibitory activity using Thioflavin-T; format: biochemical; conditions: pure compounds, similarly to Example 5(1); Aβ 25 μM, 24 hours
T1 construct: Aβ derived from human (“Human, 1-42” manufactured by Peptide Institute); purchased Peptide Institute
Procedure: The Aβ accumulation inhibitory activities of each fraction were determined using Thioflavin-T in the following condition. Aβ derived from human (“Human, 1-42” manufactured by Peptide Institute) was dissolved in 0.1% ammonia water in a concentration of 250 μM. Each of the fraction samples was added to a phosphate buffer (0.05 M sodium phosphate+0.1 M sodium chloride, pH7.4) (hereinafter abbreviated as “PBS”) in the final concentrations of 0.01 g/L, 0.05 g/L and 0.1 g/L. The Aβ solution was added thereto in the final concentration of 25 μM for the reaction at 37° C. A part of the reaction mixture was collected 0, 4, 8 and 24 hours after the start of the reaction, and 2.5 μL of the collected reaction mixture was added to each well of a 96 well plate for fluorescence measurement (“Nunc FluoroNunc plate” manufactured by Thermo Fisher Science). Then, Thioflavin-T solution was dissolved in 50 mM glycine-sodium hydroxide buffer (pH 8.5), and the solution (250 μL) was added to each well. The fluorescence intensity emitted when the B sheet of the Aβ fiber was labeled with Thioflavin-T was measured. The fluorescence intensity was measured using a microplate reader (“Wallac 1420 ARVO MX” manufactured by Perkin Elmer) in the condition of a wavelength of Excitation: 420 nm and Emission: 485 nm.

[2] = target: T2, human islet amyloid polypeptide (hIAPP) (Homo sapiens, UniProt P10997); test: hIAPP accumulation inhibitory activity using Thioflavin-T; format: biochemical; conditions: compounds at 1, 10, 100 μM in PBS pH7.4
T2 construct: hIAPP manufactured by Karebay Biochem was used in place of Aβ; purchased Karebay Biochem
T2 sequence (P10997 34-70 limits assumed): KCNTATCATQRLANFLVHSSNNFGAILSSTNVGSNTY

[3] = tested on: senescence-accelerated model mouse SAM-P8; test: Genome expression (RNA sequencing, PCA) in the whole brain of senescence-accelerated model mice after oral administration; format: in vivo; conditions: oral 7 days: donepezil 5 mg/kg, acteoside 100 mg/kg, SSa extract powder 500 mg/kg, brain after 30 days
Procedure: Seven-week-old male normal aged mouse SAM-R and male senescence-accelerated model mouse SAM-P8 that were respectively obtained from Japan SLC were arbitrarily divided into two groups of 10 mice each and acclimatized for 1 week. Then, 500 mg/kg of SSa extract powder was orally administered to SAM-R SSa extract powder-administered group and SAM-P8 SSa extract powder-administered group for 7 days. Each group of mice other than the above groups was given normal feed and water freely. Next, after the mice were reared for 30 days, the mice were humanely killed by anesthesia. The whole brain was taken out and preserved at −80° C. by the genome analysis.
Next, chloroform (0.2 mL) was added thereto, and the mixture was stirred well for 15 seconds and then stood still for 2 to 3 minutes. […]
The specific mRNA was concentrated from the obtained total RNA using an RNA sample preparation kit (“TruSeq Standard mRNA Library Prep kit” manufactured by Illumina). […] Then, the sequences of the cDNA library were determined using a next-generation DNA sequencer (“NoVaSeq6000” manufactured by Illumina) in the conditions of 100 bp, Paired-end and 40,000,000 read per 1 sample.
STAR>cufflinks>cuffdif analysis was carried out to compare the analysis results. GRCm38.92 was used as a mouse genome database, and the gene expression amount in gene level and in exon level as the component element of the gene was analyzed. […]

T1 sequence (P05067 672-713 limits assumed): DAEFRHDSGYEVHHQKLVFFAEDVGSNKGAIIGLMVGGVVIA

IC50 [1] | IC50 [2] | Structure (SMILES) | Difference of expression pattern from the control group on PC1 axis (PCA, gene and exon level) [3]
2.8 µM | 4.2 µM | COc1cc2oc(-c3ccc(O)c(O)c3)cc(=O)c2c(O)c1O[C@@H]1O[C@H](CO)[C@@H](O)[C@H](O)[C@H]1O [Pedaliin, pedaliin] | –
13 µM | 21 µM | C[C@@H]1O[C@@H](O[C@@H]2[C@@H](O)[C@H](OCCc3ccc(O)c(O)c3)O[C@H](CO)[C@H]2OC(=O)/C=C/c2ccc(O)c(O)c2)[C@H](O)[C@H](O)[C@H]1O [Acteoside, acteoside] | not a large difference

From patent publication US20260108572A1, “ALZHEIMER-TYPE DEMENTIA SUPPRESSANT, AND METHOD FOR PRODUCING SAME” (Sakamoto Yakusouen, LLC, priority 2022, published 2026)
